{"source": "ChEMBL document CHEMBL4418265", "about": "“Piperidinylpyrazolopyridine derivatives” (2016)", "tested_on": "Cynomolgus monkey", "assay": "Increase in HDL-C level in cynomolgus monkey plasma at 10 mg/kg, po administered as single dose measured after 1 or 7 days by HPLC method", "format": "functional, Macaca fascicularis", "data": [{"molecule": "O=C1CC(O)(C(F)(F)F)c2c(C3CCN(c4ccc(OC(F)F)cc4)CC3)n[nH]c2N1", "note": "(single isomer, unassigned)", "values": [{"measurement": "Activity", "result": 644, "unit": "%"}]}]}
